Patent US20070128217A1 (priority 2003, published 2007)

Key:
[1] = system: rabbit serum obtained by immunizing a rabbit with the SARS-CoV strain Frankfurt 1; assay type: binding; set-up: Binding of a rabbit serum to linear peptides / Binding of a rabbit serum to looped peptides / Rabbit serum linear peptides / Rabbit serum looped peptides / Binding of a rabbit serum to linear peptides of protein N of SARS-CoV Urbani (Rabbit serum linear peptides) / Binding of a rabbit serum to looped/cyclic peptides of protein N of SARS-CoV Urbani (Rabbit serum looped peptides): unit not given here
[2] = system: control sera (pooled serum of ten healthy LUMC hospital workers; commercial negative donor pooled serum from the Dutch bloodbank); assay type: binding, human; set-up: Binding of Control serum LUMC to linear peptides / Binding of Control serum Blood-bank to linear peptides / Binding of Control serum LUMC to looped peptides / Binding of Control Serum Blood-Bank to Looped peptides / Binding of Control serum LUMC to linear peptides of the protein M of SARS-CoV Urbani / Binding of Control serum Blood-bank to linear peptides of the protein M of SARS-CoV Urbani / Binding of Control serum LUMC to looped peptides of the protein M of SARS-CoV Urbani / Binding of Control Serum Blood-Bank to Looped peptides of the protein M of SARS-CoV Urbani: unit not given here
[3] = system: recombinant human anti-SARS-CoV antibody 03-018; assay type: binding; set-up: Binding of antibody 03-018 to linear peptides of the N protein of SARS-CoV Urbani / Binding of antibody 03-018 to looped/cyclic peptides of the N protein of SARS-CoV Urbani: unit not given here
[4] = system: antibodies in sera from SARS patients (sera 1a, 1b, 2, 6, 37, 62, London, SARS-yellow, SARS-green); assay type: binding, human; set-up: Binding of serum 6 to linear peptides of protein X1 of SARS-CoV Urbani / Binding of serum 37 to linear peptides of protein X1 of SARS-CoV Urbani / Binding of serum 6 to looped/cyclic peptide (PEPSCAN-ELISA) / Binding of serum 37 to looped/cyclic peptide (PEPSCAN-ELISA) / Binding of serum 37 to looped/cyclic peptides of protein X1 of SARS-CoV Urbani / Binding of serum 6 to linear peptides of protein X2 / Binding of serum 37 to linear peptides of protein X2 / Binding of serum 37 to looped/cyclic peptides of protein X2 of SARS-CoV Urbani / Binding of serum 6 to linear peptides of protein M of SARS-CoV Urbani / Binding of serum 37 to linear peptides of protein M of SARS-CoV Urbani / Binding of serum 6 to looped/cyclic peptides of protein M of SARS-CoV Urbani / Binding of serum 37 to looped/cyclic peptides of protein M of SARS-CoV Urbani / Binding of serum 6 to linear peptides of protein X3 of SARS-CoV Urbani / Binding of serum 37 to linear peptides of protein X3 of SARS-CoV Urbani / Binding of serum 37 to looped/cyclic peptides of protein X3 of SARS-CoV Urbani / Binding of serum 6 to linear peptides of protein X4 of SARS-CoV Urbani / Binding of serum 37 to linear peptides of protein X4 of SARS-CoV Urbani / Binding of serum 37 to looped/cyclic peptides of protein X4 of SARS-CoV Urbani / Binding of serum 6 to linear peptides of protein X5 of SARS-CoV Urbani / Binding of serum 37 to linear peptides of protein X5 of SARS-CoV Urbani / Binding of serum 37 to looped/cyclic peptides of protein X5 of SARS-CoV Urbani / Binding of serum 6 to linear peptides of protein N of SARS-CoV Urbani / Binding of serum 37 to linear peptides of protein N of SARS-CoV Urbani / Binding of serum 6 to linear peptide (PEPSCAN-ELISA) / Binding of serum 1a to looped/cyclic peptides of protein N of SARS-CoV Urbani / Binding of serum 1b to looped/cyclic peptides of protein N of SARS-CoV Urbani / Binding of serum 2 to looped/cyclic peptides of protein N of SARS-CoV Urbani / Binding of serum 6 to looped/cyclic peptides of protein N of SARS-CoV Urbani / Binding of serum 37 to looped/cyclic peptides of protein N of SARS-CoV Urbani / Binding of serum 62 to looped/cyclic peptides of protein N of SARS-CoV Urbani / Binding of serum London to looped/cyclic peptides of protein N of SARS-CoV Urbani / Binding of serum SARS-green to looped/cyclic peptides of protein N of SARS-CoV Urbani: unit not given here

Sequence	Binding of a rabbit serum to linear peptides of protein N of SARS-CoV Urbani (Rabbit serum linear peptides) [1]	Binding of a rabbit serum to looped/cyclic peptides of protein N of SARS-CoV Urbani (Rabbit serum looped peptides) [1]	Binding of Control Serum Blood-Bank to Looped peptides [2]	Binding of Control serum Blood-bank to linear peptides [2]	Binding of Control serum LUMC to linear peptides [2]	Binding of Control serum LUMC to looped peptides [2]	Binding of antibody 03-018 to linear peptides of the N protein of SARS-CoV Urbani [3]	Binding of antibody 03-018 to looped/cyclic peptides of the N protein of SARS-CoV Urbani [3]	Binding of serum 1a to linear peptides of protein N of SARS-CoV Urbani [4]	Binding of serum 1a to looped/cyclic peptides of protein N of SARS-CoV Urbani [4]	Binding of serum 1b to linear peptides of protein N of SARS-CoV Urbani [4]	Binding of serum 1b to looped/cyclic peptides of protein N of SARS-CoV Urbani [4]	Binding of serum 2 to linear peptides of protein N of SARS-CoV Urbani [4]	Binding of serum 2 to looped/cyclic peptides of protein N of SARS-CoV Urbani [4]	Binding of serum 6 to looped/cyclic peptides of protein N of SARS-CoV Urbani [4]	Binding of serum 37 to looped/cyclic peptides of protein N of SARS-CoV Urbani [4]	Binding of serum 62 to looped/cyclic peptides of protein N of SARS-CoV Urbani [4]	Binding of serum London to looped/cyclic peptides of protein N of SARS-CoV Urbani [4]	Binding of serum SARS-green to looped/cyclic peptides of protein N of SARS-CoV Urbani [4]	Binding of serum SARS-yellow to looped/cyclic peptides of protein N of SARS-CoV Urbani [4]	further results
PYGANKEGIVWVATE	0.2	0.2	0.6	0.7	0.7	0.7	0.1	0.2	0.3	0.4	0.2	0.3	0.2	0.5	0.3	0.9	0.9	0.5	0.8	0.7	Binding of serum 6 to linear peptides of protein N of SARS-CoV Urbani [4]: 0.2; Binding of serum 37 to linear peptides of protein N of SARS-CoV Urbani [4]: 1.0; Binding of serum 62 to linear peptides of protein N of SARS-CoV Urbani [4]: 0.8; Binding of serum London to linear peptides of protein N of SARS-CoV Urbani [4]: 0.7; Binding of serum SARS-green to linear peptides of protein N of SARS-CoV Urbani [4]: 0.8; Binding of serum SARS-yellow to linear peptides of protein N of SARS-CoV Urbani [4]: 0.6
QAFGRRGPEQTQGNF	0.1	0.3	0.4	0.9	0.7	0.4	0.1	0.2	–	0.3	–	0.2	–	0.3	0.2	0.3	0.3	0.3	0.2	0.2	Binding of serum 1a to linear peptide (PEPSCAN-ELISA) [4]: 0.3; Binding of serum 1b to linear peptide (PEPSCAN-ELISA) [4]: 0.1; Binding of serum 2 to linear peptide (PEPSCAN-ELISA) [4]: 0.2; Binding of serum 6 to linear peptide (PEPSCAN-ELISA) [4]: 0.2; Binding of serum 37 to linear peptide (PEPSCAN-ELISA) [4]: 0.6; Binding of serum 62 to linear peptide (PEPSCAN-ELISA) [4]: 0.8; Binding of serum London to linear peptide (PEPSCAN-ELISA) [4]: 0.7; Binding of serum SARS-green to linear peptide (PEPSCAN-ELISA) [4]: 0.2; Binding of serum SARS-yellow to linear peptide (PEPSCAN-ELISA) [4]: 0.4
QGVPINTNSGPDDQI	0.2	0.8	1.1	0.6	0.6	0.8	0.1	0.1	0.3	0.5	0.2	0.4	0.2	0.6	0.4	0.6	1.0	0.6	1.3	1.7	Binding of serum 6 to linear peptides of protein N of SARS-CoV Urbani [4]: 0.2; Binding of serum 37 to linear peptides of protein N of SARS-CoV Urbani [4]: 0.9; Binding of serum 62 to linear peptides of protein N of SARS-CoV Urbani [4]: 0.6; Binding of serum London to linear peptides of protein N of SARS-CoV Urbani [4]: 0.5; Binding of serum SARS-green to linear peptides of protein N of SARS-CoV Urbani [4]: 0.6; Binding of serum SARS-yellow to linear peptides of protein N of SARS-CoV Urbani [4]: 0.6
QHGKEELRFPRGQGV	0.2	0.5	0.7	0.8	0.7	0.7	0.1	0.2	0.2	0.4	0.2	0.3	0.3	0.5	0.4	0.6	0.4	0.6	0.4	0.7	Binding of serum 6 to linear peptides of protein N of SARS-CoV Urbani [4]: 0.1; Binding of serum 37 to linear peptides of protein N of SARS-CoV Urbani [4]: 0.7; Binding of serum 62 to linear peptides of protein N of SARS-CoV Urbani [4]: 0.7; Binding of serum London to linear peptides of protein N of SARS-CoV Urbani [4]: 0.5; Binding of serum SARS-green to linear peptides of protein N of SARS-CoV Urbani [4]: 0.4; Binding of serum SARS-yellow to linear peptides of protein N of SARS-CoV Urbani [4]: 0.6
